Test [1] is described as follows: Oral Glucose Tolerance Test (OGTT) in high fat diet fed mice given ALM201. It is filed as in vivo. As to the method:
An OGTT was performed by fasting the mice for 4 h, taking baseline blood glucose, administering 40% D-glucose, and recording two further blood glucose readings at 30 and 60 min.
(§1) For the high fat diet study, 40 age and sex matched mice were chosen with an age range of 6-10 weeks at the experimental start date. Mice were randomised into four groups: PBS Fkbpl^+/−, PBS Fkbpl^+/+, ALM201 Fkbpl^+/− and ALM201 Fkbpl^+/+. Power calculations were utilised to predict the number of mice needed to show statistical significance. Taking group 1 mean weight to be 25 g and group 2 mean weight to be 45 g, with a standard deviation of 13 gives a sample size of eight mice per group when powered to 0.8, with α=0.05. 10 mice per treatment group were used. All mice were weighed at experimental start date, biweekly for the first three weeks to ensure health, and weekly thereafter. Mice were solely fed a high fat diet comprising 60% fat (Cat no. F3282, Dates and, USA). Food provided was weighed biweekly for three weeks, then weekly, to ensure equal food provisions between boxes, with an allowance of 5 g per mouse per day assumed. ALM201 was reconstituted in PBS, stored at −20° C., and injected subcutaneously at a dose of 0.3 mg/kg, 5 days per week.

Test [2] deals with SIRT1. Put plainly: SIRT1 protein levels following ALM201 treatment (western blot). The note with it: FIG. 6D. It is filed as cell-based. As to the method:
For assessing protein levels: Cell lysates were prepared in RIPA buffer from MDA-MB-231, A3, MCF-7 and D2 cells and subjected to Western Blotting. The membrane was then probed with a 1:1000 dilution of rabbit FKBP-L IgG polyclonal primary antibody (Proteintech UK, cat: 10060-1-AP), 1:1000 rabbit SIRT1 IgG monoclonal primary antibody (Abcam, UK cat: ab32441) in 3% blocking solution overnight on a rocker at 4° C. The membrane was washed with PBS-Tween and then PBS for 5 min each, and was probed for an hour with a 1:5000 dilution of ECL anti rabbit IgG HRP linked whole secondary antibody (GE Healthcare UK Ltd.) Membranes were washed and developed as in section 2.2.2.11.3. Membranes were then stripped with Restore™ Western Blot Stripping Buffer (Thermo Scientific) for 10 min, washed, re-probed with rabbit GAPDH primary antibody (Sigma-Aldrich), and a 1:5000 dilution of ECL anti rabbit IgG HRP linked whole secondary antibody (GE Healthcare UK Ltd.) and developed as above. SIRT1 was identified as a band around 110 kDa, FKBP-L at 42 kDa.

A short description of test [3]: High fat diet weight gain study in Fkbpl+/- and Fkbpl+/+ mice, ALM201 vs PBS. The test is classed as in vivo. The note with it: ALM201 0.3 mg/kg subcutaneously 5 days per week.
Excerpt: as §1

The subject of test [4] is leptin. Description: Ray Biotech cytokine array on spent medium of MDA231 cells: leptin. The test is classed as cell-based. The note with it: spent medium of MDA231 cells after exposure to ALM201. From the text:
(§2) FIGS. 7A and 7B illustrate the level of secretion of leptin, IL8 and TIMP Secretion after treatment with FKBP-L's therapeutic peptide, ALM201—A Ray Biotech cytokine array was used to measure cytokines in the spent medium of MDA231 cells after exposure to ALM201. Blots were then quantitated by densitometric analysis using Ray Biotech software.
(§3) A Ray Biotech cytokine array was used to measure cytokines in the spent medium of MDA231 cells after exposure to ALM201. Blots were then quantitated by densitometric analysis using Ray Biotech software. IL8 and TIMP1 levels were then validated by ELISA in two or three independent repeats. A reduction in these cytokines would reduce the obesity phenotype.

Test [5] concerns IL-8. Put plainly: Ray Biotech cytokine array on spent medium of MDA231 cells, validated by ELISA: IL-8. The note with it: spent medium of MDA231 cells after exposure to ALM201. It is filed as cell-based.
Excerpt: as §2, §3

The subject of test [6] is TIMP1. Description: Ray Biotech cytokine array on spent medium of MDA231 cells, validated by ELISA: TIMP1. It is filed as cell-based. The note with it: spent medium of MDA231 cells after exposure to ALM201.
Excerpt: as §2, §3

In test [7] the test system is IL-1β. Put plainly: LPS-induced IL-1β secretion in THP-1 monocytes (ELISA). The test is classed as cell-based. The note with it: 1000 ng/ml LPS, conditioned medium 24 h later. As to the method:
FIG. 13 illustrates the FKBP-L peptide, AD-01, abrogates LPS-induced activation of IL-1β in THP-1 monocytes—Cells were stimulated with 1000 ng of LPS.
(§4) THP1 cells were treated with 100 ng/ml LPS and cell lysates harvested and subjected to western blotting as described in Example 4, using primary antibody against pSER36 NFkB (at a 1:1000 dilution) and a 1:5000 dilution of ECL anti rabbit IgG HRP linked whole secondary antibody (GE Healthcare UK Ltd.). To measure IL-1β levels THP1 cells were treated with 1000 ng/ml LPS±AD-01 and conditioned cell culture medium was collected 24 h later and assessed using an IL-1β ELISA.

The test system of test [8] is NFkB. Description: LPS-induced NFkB phosphorylation in THP-1 monocytes (western blot). It is filed as cell-based. The note with it: 100 ng/ml LPS, lysates 6 hour after treatment. As to the method: FIG. 12 illustrates the FKBP-L peptide, AD-01 (SEQ ID NO: 10), abrogates LPS-induced activation of NFkB in THP-1 monocytes—Cells were stimulated with 100 ng of LPS which results in activation of NFkB phosphorylation.
as §4

“Also recorded” adds a separate entry of the source.

Consider two substances from patent US11376308B2, “Use of FKBP-L polypeptides and nucleic acids for the treatment of obesity” (The Queen's University of Belfast, priority 2016, dated 2022).

In the case of “NH2-IRQQPRDPPTETLELEVSPDPAS-OH (H-IRQQPRDPPTETLELEVSPDPAS-OH) [ALM201]”, the “blood glucose / glucose intolerance (OGTT)” value in test [1] (Fkbpl+/- mice given ALM201 vs Fkbpl+/- mice given PBS, readings at 30 and 60 min after 40% glucose) is recorded as “significantly reduced; also recorded: significantly lower blood glucose readings”. The “difference in blood glucose levels between Fkbpl+/- and Fkbpl+/+ mice (OGTT)” value in test [1] (both genotypes administered ALM201) is “no significant difference”. In test [2], the SIRT1 protein levels entry is reported as “increased SIRT1 levels”. Besides, the weight gain result is “significantly reduced; also recorded: normalises the mouse weight gain; also recorded: reduces and normalises weight gain” in test [3] (Fkbpl+/- mice, 0.3 mg/kg); “partially prevented weight gain” in test [3] (wild-type (Fkbpl+/+) mice). In test [4], the secreted leptin levels entry is reported as “reduce”. Moreover, the “secreted IL-8 levels” value in test [5] is “reduce”. Besides, the “secreted TIMP1 levels” value in test [6] is “reduce”.

Turning to “NH2-QIRQQPRDPPTETLELEVSPDPAS-OH (H-QIRQQPRDPPTETLELEVSPDPAS-OH) [AD-01]”, the “LPS-induced IL-1β secretion” value in test [7] is “dramatic reduction; also recorded: significantly abrogated”. Further, the “LPS-induced activation of NFkB (phosphorylation)” value in test [8] is recorded as “inhibit; also recorded: abrogated that increase”.
